The subject of this assay is P388 leukemia ip, CD2F1 mice, survival T/C. The experiment in a line: NCI In Vivo Anticancer Drug Screen. Data for tumor model P388 Leukemia (intraperitoneal) in CD2F1 (CDF1) mice. The settings on record: endpoint: median survival time, higher = longer survival. Put shortly:
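Mice carrying the transplanted tumor received test compound or vehicle. Survival was recorded in each group, and the value is the treated-group measurement divided by that of the vehicle-treated control group.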

The mark [1] stands for this setting: dose: 12.5 mg/kg/injection, schedule: Q01DX009 (ip), vehicle: saline with Tween-80.
[2] abbreviates: dose: 25.0 mg/kg/injection, schedule: Q01DX009 (ip), vehicle: saline with Tween-80.
Setting [3] is: dose: 50.0 mg/kg/injection, schedule: Q01DX009 (ip), vehicle: saline with Tween-80.
Setting [4] is: dose: 100.0 mg/kg/injection, schedule: Q01DX009 (ip), vehicle: saline with Tween-80.
The mark [5] stands for this setting: dose: 200.0 mg/kg/injection, schedule: Q01DX009 (ip), vehicle: saline with Tween-80.
[6] abbreviates: dose: 50.0 mg/kg/injection, schedule: Q01DX005 (ip), vehicle: saline with Tween-80.

“And” between values parts separate entries of the source, which are not always exact repeats. Identical values can stand only once. Inconclusive results and toxic doses are left out.

Consider `CC1(c2ccc(Cl)cc2)NC(=O)N(CN2CCCCC2)C1=O` (centres undefined), for which the T/C runs as follows: under setting [1], 100 % of control; under setting [2], 100 % of control; under setting [3], 100 % of control; (dose: 50.0 mg/kg/injection, schedule: Q04DX003 (ip), vehicle: saline sonified) 100 % of control; (dose: 100.0 mg/kg/injection, schedule: Q04DX003 (ip), vehicle: saline sonified) 107 % of control; (dose: 200.0 mg/kg/injection, schedule: Q04DX003 (ip), vehicle: saline sonified) 100 % of control.
`C=CCC12C=C(OC)C(=O)C=C1OC(c1ccc3c(c1)OCO3)C2C` (centres undefined): the T/C was 104 % of control (dose: 16.25 mg/kg/injection, schedule: Q01DX005 (ip), vehicle: Klucel (hydroxypropylcellulose) (HPC)); 104 % of control (dose: 32.5 mg/kg/injection, schedule: Q01DX005 (ip), vehicle: Klucel (hydroxypropylcellulose) (HPC)); 94 % of control (dose: 65.0 mg/kg/injection, schedule: Q01DX005 (ip), vehicle: Klucel (hydroxypropylcellulose) (HPC)); 94 % of control (dose: 130.0 mg/kg/injection, schedule: Q01DX005 (ip), vehicle: Klucel (hydroxypropylcellulose) (HPC)).
On to `Clc1ccc2c(NCCN3CCCCCC3)nc(C(Cl)(Cl)Cl)nc2c1`, for which the T/C by setting is: under setting [3], 100 % of control; under setting [4], 104 % of control; under setting [5], 100 % of control.
Consider `O=C(O)c1cccc(C(=O)O)c1S(=O)(=O)c1ccccc1`, for which the T/C is 99 % of control (dose: 100.0 mg/kg/injection, schedule: Q01DX001 (ip), vehicle: saline with Tween-80); 98 % of control (dose: 200.0 mg/kg/injection, schedule: Q01DX001 (ip), vehicle: saline with Tween-80); 95 % of control (dose: 400.0 mg/kg/injection, schedule: Q01DX001 (ip), vehicle: saline with Tween-80).
For the compound `NC1=NCN(C2OC(CO)C(O)C2O)C(=O)N1` (centres undefined), the T/C is, setting by setting: (dose: 3.12 mg/kg/injection, schedule: Q01DX009 (ip), vehicle: saline) 110 % of control; (dose: 3.13 mg/kg/injection, schedule: Q01DX009 (ip), vehicle: saline) 120 % of control; (dose: 25.0 mg/kg/injection, schedule: Q01DX005 (iv), vehicle: saline) 118 % of control; (dose: 25.0 mg/kg/injection, schedule: Q01DX009 (ip), vehicle: saline) 150 % of control and 159 % of control; (dose: 50.0 mg/kg/injection, schedule: Q01DX005 (ip), vehicle: saline) 150 % of control; (dose: 120.0 mg/kg/injection, schedule: Q01DX009 (ip), vehicle: saline) 190 % of control. Further, the T/C is 199 % of control and 203 % of control (dose: 140.0 mg/kg/injection, schedule: Q01DX009 (ip), vehicle: saline); 200 % of control (dose: 160.0 mg/kg/injection, schedule: Q01DX009 (ip), vehicle: saline); 184 % of control (dose: 200.0 mg/kg/injection, schedule: Q01DX005 (ip), vehicle: saline); 88 % of control and 90 % of control (dose: 400.0 mg/kg/injection, schedule: Q01DX009 (ip), vehicle: saline).
With `COC(=S)NC(=O)c1ccc(Cl)c(Cl)c1`, the T/C runs as follows: under setting [2], 108 % of control; under setting [3], 107 % of control; under setting [4], 99 % of control; under setting [5], 110 % of control.
As to `CC(=O)Nc1ccc(C(/C=N\NC(N)=S)=N/NC(N)=S)cc1`, the T/C is, setting by setting: under setting [2], 99 % of control; under setting [3], 97 % of control; under setting [4], 105 % of control.
`Nc1nc2ncn(COC(CO)CO)c2c(=O)[nH]1`: the T/C (dose: 60.0 mg/kg/injection, schedule: Q01DX005 (ip), vehicle: saline with Tween-80) is 100 % of control; the T/C (dose: 120.0 mg/kg/injection, schedule: Q01DX005 (ip), vehicle: saline with Tween-80) is 98 % of control; the T/C (dose: 240.0 mg/kg/injection, schedule: Q01DX005 (ip), vehicle: saline with Tween-80) is 100 % of control.
As to `COc1cccc(C2c3cc4c(cc3OC(C)(O)C2C)OCO4)c1OC` (centres undefined), the T/C runs as follows: (dose: 60.0 mg/kg/injection, schedule: Q01DX005 (ip), vehicle: Klucel (hydroxypropylcellulose) (HPC)) 103 % of control; (dose: 120.0 mg/kg/injection, schedule: Q01DX005 (ip), vehicle: Klucel (hydroxypropylcellulose) (HPC)) 97 % of control; (dose: 240.0 mg/kg/injection, schedule: Q01DX005 (ip), vehicle: Klucel (hydroxypropylcellulose) (HPC)) 95 % of control.
As for `COc1ccc2nc(CC(C)C)c3c(c2c1)-c1ccccc1C3=O`, the T/C was 91 % of control (dose: 50.0 mg/kg/injection, schedule: Q01DX005 (ip), vehicle: Klucel (hydroxypropylcellulose) (HPC)); 87 % of control (dose: 100.0 mg/kg/injection, schedule: Q01DX005 (ip), vehicle: Klucel (hydroxypropylcellulose) (HPC)); 89 % of control (dose: 200.0 mg/kg/injection, schedule: Q01DX005 (ip), vehicle: Klucel (hydroxypropylcellulose) (HPC)).
On to `CC1=C(C)SC(=C2SC=CS2)S1`, for which the T/C is 102 % of control (dose: 100.0 mg/kg/injection, schedule: Q04DX002 (ip), vehicle: saline with Tween-80); 92 % of control (dose: 200.0 mg/kg/injection, schedule: Q04DX002 (ip), vehicle: saline with Tween-80); 95 % of control (dose: 400.0 mg/kg/injection, schedule: Q04DX002 (ip), vehicle: saline with Tween-80).
As for `c1cncc(-c2n[nH]c3c2CCCc2ccccc2-3)c1`, the T/C is 107 % of control (dose: 12.5 mg/kg/injection, schedule: Q01DX009 (ip), vehicle: other); 100 % of control (dose: 25.0 mg/kg/injection, schedule: Q01DX009 (ip), vehicle: other); 107 % of control (dose: 50.0 mg/kg/injection, schedule: Q01DX009 (ip), vehicle: other); 96 % of control (dose: 100.0 mg/kg/injection, schedule: Q01DX009 (ip), vehicle: other); 105 % of control (dose: 200.0 mg/kg/injection, schedule: Q01DX009 (ip), vehicle: other).
As to `C[CH2][Pb]([CH2]C)([CH2]C)[N]1C(=O)c2ccccc2C1=O`, the T/C is 110 % of control (dose: 1.56 mg/kg/injection, schedule: Q01DX009 (ip), vehicle: Klucel (hydroxypropylcellulose) (HPC)) and 118 % of control (dose: 3.12 mg/kg/injection, schedule: Q01DX009 (ip), vehicle: Klucel (hydroxypropylcellulose) (HPC)).
As for `NC(CCl)C(=O)NO` (centres undefined), the T/C by setting is: (dose: 50.0 mg/kg/injection, schedule: Q01DX009 (ip), vehicle: saline) 99 % of control; (dose: 100.0 mg/kg/injection, schedule: Q01DX009 (ip), vehicle: saline) 96 % of control; (dose: 200.0 mg/kg/injection, schedule: Q01DX009 (ip), vehicle: saline) 103 % of control.
For the compound `CC[N+](CC)=c1cc2oc3cc(N(C)C)ccc3nc-2cc1C`, the T/C by setting is: (dose: 6.25 mg/kg/injection, schedule: Q01DX005 (ip), vehicle: saline with Tween-80) 99 % of control and 107 % of control; (dose: 6.25 mg/kg/injection, schedule: Q01DX005 (ip), vehicle: saline) 107 % of control; (dose: 12.5 mg/kg/injection, schedule: Q01DX005 (ip), vehicle: saline with Tween-80) 106 % of control and 110 % of control; (dose: 12.5 mg/kg/injection, schedule: Q01DX005 (ip), vehicle: saline) 112 % of control; (dose: 25.0 mg/kg/injection, schedule: Q01DX005 (ip), vehicle: saline with Tween-80) 109 % of control and 115 % of control; (dose: 25.0 mg/kg/injection, schedule: Q01DX005 (ip), vehicle: saline) 122 % of control. Further, the T/C under setting [6] was 109 % of control and 110 % of control and 112 % of control.
As to `CC(C)OC(=O)Oc1cccs1`, the T/C under setting [1] is 100 % of control, the T/C under setting [2] was 109 % of control and the T/C under setting [3] is 100 % of control.
In the case of `COc1cccc(OC(=O)c2ccc(OC)c(C3=CC(=O)C=CC3=O)c2)c1`, the T/C (dose: 100.0 mg/kg/injection, schedule: Q01DX001 (ip), vehicle: Klucel (hydroxypropylcellulose) (HPC)) was 94 % of control; the T/C (dose: 200.0 mg/kg/injection, schedule: Q01DX001 (ip), vehicle: Klucel (hydroxypropylcellulose) (HPC)) is 93 % of control; the T/C (dose: 400.0 mg/kg/injection, schedule: Q01DX001 (ip), vehicle: Klucel (hydroxypropylcellulose) (HPC)) is 89 % of control.
On to `C/C(=N\N=C(N)N)c1cccc(/C(C)=N/N=C(N)N)n1`, for which the T/C was 101 % of control (dose: 6.25 mg/kg/injection, schedule: Q01DX009 (ip), vehicle: saline with Tween-80); 110 % of control under setting [2]; 90 % of control under setting [3].
In the case of `Cn1c(N)c(C(=O)CCc2ccccc2)c(=O)n(C)c1=O`, the T/C under setting [6] is 97 % of control; the T/C (dose: 100.0 mg/kg/injection, schedule: Q01DX005 (ip), vehicle: saline with Tween-80) is 97 % of control; the T/C (dose: 200.0 mg/kg/injection, schedule: Q01DX005 (ip), vehicle: saline with Tween-80) is 96 % of control.

Values taken from PubChem BioAssay AID330 (DTP/NCI, 2004).
